Measured values taken from patent EP4635974A1, “COSMETIC COMPOSITION FOR SKIN IMPROVEMENT” (LG Household & Health Care Ltd., priority 2022, dated 2024).
Where a SMILES comes first, the peptide text is derived from it. Where no end group is shown, it is not given here. The star is where a group is joined. Palmitoyl = CCCCCCCCCCCCCCCC(=O)*

What was measured:
[1] = target: T1, Elastase derived from human leukocytes (Homo sapiens, UniProt P08246); assay: Inhibition of elastase activity (synthetic substrate, absorbance at 405 nm); format: biochemical; conditions: for Inhibition of elastase activity (%): 100 µg/mL
T1 construct: Elastase derived from human leukocytes was used; from tissue; host or cells: human leukocytes
T1 sequence (P08246 30-267): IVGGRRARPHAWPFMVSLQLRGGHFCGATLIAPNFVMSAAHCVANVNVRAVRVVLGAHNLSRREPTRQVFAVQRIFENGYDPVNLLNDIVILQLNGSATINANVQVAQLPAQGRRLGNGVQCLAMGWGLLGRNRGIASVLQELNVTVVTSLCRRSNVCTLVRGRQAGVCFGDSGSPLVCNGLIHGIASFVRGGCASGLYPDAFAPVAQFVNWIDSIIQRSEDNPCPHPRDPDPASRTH
Experimental: (§1) In order to investigate the effect of peptide sequence variation, the activity of […] was tested as in Test Example 1 after sequence variation. Elastase derived from human leukocytes was used, and the synthetic substrate MeOSuc-Ala-Ala-Pro-Val-pNA was used as the substrate of elastase. A 100 mM Tris (pH 7.5) solution was used as a buffer solution. The elastase was diluted finally to 0.2 mU using the buffer solution. In addition, the synthetic substrate of elastase was prepared into a 100 mM solution using DMSO, and then diluted to a final concentration of 0.5 mM using a buffer solution. As a positive control group, quercetin known to inhibit elastase was used at a concentration of 10 ppm. The candidates of elastase inhibition were tested at final concentrations of 10 and 20 ppm. Reaction was conducted in a 96-well plate at room temperature for 20 minutes. The inhibition of the enzyme activity was determined by measuring absorbance at 405 nm using a spectrophotometer with 1-minute intervals, and calculating the slope of the absorbance versus time.
(§2) The peptide sequences of SEQ ID NOS 14 to 16 were treated at 100 µg/mL, and the peptide sequence RKSLFVD was used as a control peptide sequence. The inhibition of collagenase activity (%) and the inhibition of elastase activity (%) were calculated from the relative enzyme activity versus the control group, and the result is given in Table 4.
(§3) In order to investigate the effect of variation of the N-terminal or C-terminal of the peptide sequence, the activity of collagenase and elastase was tested after sequence variation as in Test Example 1.

[2] = system: acetylcholine release at the neuromuscular synapses; conditions: cited from earlier work
[3] = system: Collagenase derived from the mouse pancreas; assay: Inhibition of collagenase activity (synthetic substrate, absorbance at 345 nm); format: biochemical; conditions: 100 µg/mL
Experimental: Collagenase derived from the mouse pancreas was used, and the synthetic substrate N-(3-[2-furyl]acryloyl)-Leu-Gly-Pro-Ala was used as the substrate of collagenase. A buffer solution in which 50 mM tricine, 10 mM CaCl2·H2O and 400 mM NaCl were dissolved (pH 7.5) was used. The synthetic substrate was dissolved in the buffer solution to a concentration of 10 mM and finally diluted to 75 µM. The collagenase was dissolved to a concentration of 1 unit/mL using cold triply distilled water at 4 °C and then finally diluted to 0.05 unit/mL using a buffer solution. The candidates of collagenase inhibition were tested at final concentrations of 25 and 50 ppm. As a positive control group, epigallocatechin gallate (EGCG) known to have the effect of inhibiting collagenase was used at a final concentration of 50 ppm. Reaction was conducted in a 96-well plate at room temperature for 10 minutes. The inhibition of the enzyme activity was determined by measuring absorbance at 345 nm using a spectrophotometer with 1-minute intervals, and calculating the maximum slope of the absorbance versus time.
as §1, §2, §3

[4] = Table 5, N-terminal or C-terminal variation
[5] = Table 4, relative enzyme activity versus the control group

Row | Compound | inhibition at 100 µg/mL [1, 5] [%] | Inhibition of collagenase activity (%) ([3]; Table 3) | also measured
1 | CC(=O)N[C@@H](CCCCN)C(=O)NCC(=O)N[C@@H](CCCNC(=N)N)C(=O)N[C@@H](CO)C(=O)N[C@@H](CO)C(=O)N[C@@H](CS)C(=O)N[C@@H](Cc1ccccc1)C(=O)N[C@H](C(=O)N[C@@H](CC(=O)O)C(=O)N[C@@H](CS)C(=O)O)C(C)C (Ac-KGRSSCFVDC-OH) | – | – | inhibition at 100 µg/mL [1, 4]: 71%
2 | CCCCCCCCCCCCCCCC(=O)N[C@@H](CCCCN)C(=O)NCC(=O)N[C@@H](CCCNC(=N)N)C(=O)N[C@@H](CO)C(=O)N[C@@H](CO)C(=O)N[C@@H](CS)C(=O)N[C@@H](Cc1ccccc1)C(=O)N[C@H](C(=O)N[C@@H](CC(=O)O)C(=O)N[C@@H](CS)C(=O)O)C(C)C (Palmitoyl-KGRSSCFVDC-OH) | – | – | inhibition at 100 µg/mL [1, 4]: 74.1%
3 | CC(C)[C@H](NC(=O)[C@H](Cc1ccccc1)NC(=O)[C@H](CS)NC(=O)[C@H](CO)NC(=O)[C@H](CO)NC(=O)[C@H](CCCNC(=N)N)NC(=O)CNC(=O)[C@@H](N)CCCCN)C(=O)N[C@@H](CC(=O)O)C(=O)N[C@@H](CS)C(N)=O [C-amine-substituted peptide of SEQ ID] (H-KGRSSCFVDC-NH2) | – | – | inhibition at 100 µg/mL [1, 4]: 52.6%
4 | Ac-Glu-Glu-Met-Gln-Arg-Arg-NH2 (Ac-EEMQRR-NH2) [Argireline] | – | – | times weaker than Botox [2]: 5000 times
5 | CDVFCSSRGK [SEQ ID NO 14] | – | – | Inhibition of collagenase activity (%) [3, 5]: 24.77%; Inhibition of elastase activity (%) [1, 5]: 68.5%
6 | DVFCSSRGK [SEQ ID NO 15, DVFCSSRGK] | 65.5 | – | –
7 | FCSSRGK [SEQ ID NO 16, FCSSRGK] | 51.5 | – | –
8 | KGRSSCF [SEQ ID NO 3, KGRSSCF] | 57.8 | – | –
9 | KGRSSCFDC [SEQ ID NO 11] | – | 11.82 | –
10 | KGRSSCFVC [SEQ ID NO 12] | – | 13.97 | –
11 | KGRSSCFVD [SEQ ID NO 2, KGRSSCFVD] | 70.9 | – | –
12 | KGRSSCFVDC [SEQ ID NO 1] | – | 22.91 | Inhibition of collagenase activity (%) [3, 5]: 21.57%; Inhibition of collagenase activity (%) [3, 4]: 22.6%; Inhibition of elastase activity (%) [1, 5]: 72.1%; Inhibition of elastase activity (%) [1, 4]: 68.3%
13 | KGSSCFVDC [SEQ ID NO 10] | – | 15.24 | –
14 | RKSLFVD [Control peptide sequence, RKSLFVD, reference compound] | 5.2 | – | inhibition at 100 µg/mL [1, 4]: 1.3%
15 | RSSCFVDC [SEQ ID NO 5] | – | 12.23 | –
16 | SSCFVDC [SEQ ID NO 6] | – | 17.97 | –
